{"source": "ChEMBL document CHEMBL5154703", "about": "“Improved cyclobutyl nabilone analogs as potent CB1 receptor agonists” (Eur J Med Chem, 2022)", "key": {"[1]": {"target": "T1, Cannabinoid receptor 1 (Rattus norvegicus, UniProt P20272)", "T1 sequence (P20272 whole entry)": "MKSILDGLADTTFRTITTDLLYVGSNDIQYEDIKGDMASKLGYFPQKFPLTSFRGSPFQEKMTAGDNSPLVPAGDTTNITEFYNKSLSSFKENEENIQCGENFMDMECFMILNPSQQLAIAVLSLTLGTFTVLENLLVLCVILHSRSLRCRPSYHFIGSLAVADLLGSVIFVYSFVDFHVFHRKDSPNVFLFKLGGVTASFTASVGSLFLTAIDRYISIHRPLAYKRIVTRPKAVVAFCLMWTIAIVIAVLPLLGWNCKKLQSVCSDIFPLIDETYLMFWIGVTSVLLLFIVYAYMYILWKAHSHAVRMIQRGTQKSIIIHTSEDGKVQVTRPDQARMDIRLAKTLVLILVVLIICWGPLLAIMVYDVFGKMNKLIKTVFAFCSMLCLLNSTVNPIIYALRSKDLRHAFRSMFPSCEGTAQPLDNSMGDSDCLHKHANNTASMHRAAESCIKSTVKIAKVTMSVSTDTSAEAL", "test": "Displacement of [3H]-CP-55,940 from CB1R in rat brain membranes measured by radioligand based competition binding assay", "format": "cell membranes, Membrane"}, "[2]": {"tested_on": "Rattus norvegicus", "test": "Antinociceptive activity against female Sprague-Dawley rat model of thermal-induced nociception at 0.01 to 10 mg/kg measured after 30 to 360 mins by tail flick test", "format": "functional", "conditions": "dose 0.01-10 mg/kg, time 30-360 min"}, "[3]": {"tested_on": "Rattus norvegicus", "test": "Hypothermic effect in female Sprague-Dawley rat model assessed as reduction in body temperature at 10 to 30 mg/kg after 30 to 360 mins", "format": "functional", "conditions": "dose 10-30 mg/kg; time 30-360 min"}, "[4]": {"tested_on": "Rattus norvegicus", "test": "Hypothermic effect in female Sprague-Dawley rat model assessed as reduction in body temperature at 0.01 to 10 mg/kg measured after 30 to 360 mins", "format": "functional", "conditions": "dose 0.01-10 mg/kg; time 30-360 min"}, "[5]": {"tested_on": "Rattus norvegicus", "test": "Antinociceptive activity against female Sprague-Dawley rat model of thermal-induced nociception at 0.3 to 1 mg/kg assessed as increase in tail flick latency measured after 30 to 360 mins by tail flick test", "format": "functional, organism-based", "conditions": "dose 0.3-1 mg/kg, time 30-360 min"}, "[6]": {"target": "T2, Cannabinoid receptor 1 (Homo sapiens, UniProt P21554)", "T2 sequence (P21554 whole entry)": "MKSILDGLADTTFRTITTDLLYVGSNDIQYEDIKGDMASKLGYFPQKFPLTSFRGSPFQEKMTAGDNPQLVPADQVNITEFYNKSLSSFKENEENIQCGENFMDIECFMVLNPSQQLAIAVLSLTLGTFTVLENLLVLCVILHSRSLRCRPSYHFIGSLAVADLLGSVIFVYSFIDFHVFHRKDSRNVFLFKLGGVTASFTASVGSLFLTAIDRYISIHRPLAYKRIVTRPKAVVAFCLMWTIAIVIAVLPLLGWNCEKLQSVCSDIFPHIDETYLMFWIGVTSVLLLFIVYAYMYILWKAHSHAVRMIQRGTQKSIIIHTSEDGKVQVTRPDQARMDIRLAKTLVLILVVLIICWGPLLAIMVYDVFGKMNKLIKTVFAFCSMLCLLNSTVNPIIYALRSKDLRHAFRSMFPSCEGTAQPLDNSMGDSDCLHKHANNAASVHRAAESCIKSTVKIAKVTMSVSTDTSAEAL", "test": "Agonist activity at N-terminal 3HA-tagged human CB1 receptor expressed in CHO cells assessed as inhibition of forskolin-induced cAMP accumulation measured for 30 mins by FRET assay relative to control", "format": "functional, cell-based", "conditions": "filed as agonist"}, "[7]": {"target": "T2, Cannabinoid receptor 1", "test": "Agonist activity at human CB1 receptor expressed in CHO-K1 cells assessed as assessed as induction of beta-arrestin 2 recruitment measured for 90 mins by PathHunter assay relative to control", "format": "functional, cell-based", "conditions": "filed as agonist"}, "[8]": {"tested_on": "Rattus norvegicus", "test": "Hypothermic effect in female Sprague-Dawley rat model assessed as reduction in body temperature at 0.3 to 1 mg/kg after 90 mins", "format": "functional, organism-based", "conditions": "dose 0.3-1 mg/kg"}, "[9]": {"tested_on": "Rattus norvegicus", "test": "Hypothermic effect in female Sprague-Dawley rat model assessed as reduction in body temperature at 0.01 to 10 mg/kg measured as ED50 after 30 to 360 mins", "format": "functional", "conditions": "dose 0.01-10 mg/kg, time 30-360 min"}, "[10]": {"target": "Cannabinoid receptor 1 (Rattus norvegicus) (UniProt P20272)", "sequence (P20272 whole entry)": "as the sequence (P20272 whole entry) above", "test": "Agonist activity at rat CB1 receptor expressed in HEK293 cells assessed as inhibition of forskolin-induced cAMP accumulation measured for 60 mins by Lance Ultra cAMP assay relative to control", "format": "functional, cell-based", "conditions": "filed as agonist"}, "[11]": {"target": "T2, Cannabinoid receptor 1", "test": "Agonist activity at N-terminal 3HA-tagged human CB1 receptor expressed in CHO cells assessed as inhibition of forskolin-induced cAMP accumulation measured for 30 mins by FRET assay", "format": "functional, cell-based"}, "[12]": {"target": "T2, Cannabinoid receptor 1", "test": "Agonist activity at human CB1 receptor expressed in CHO-K1 cells assessed as assessed as induction of beta-arrestin 2 recruitment measured for 90 mins by PathHunter assay", "format": "functional, cell-based"}, "[13]": {"target": "T1, Cannabinoid receptor 1", "test": "Agonist activity at rat CB1 receptor expressed in HEK293 cells assessed as inhibition of forskolin-induced cAMP accumulation measured for 60 mins by Lance Ultra cAMP assay", "format": "functional, cell-based"}}, "note": "pEC50, pKi: −log10 of the molar value. Calls of active or inactive are those of the source. The rule behind the calls is not given here.", "data": [{"smiles": "CC1(C)Oc2cc(C3(CCCCCN=C=S)CCC3)cc(O)c2[C@@H]2CC(=O)CC[C@H]21", "values": [{"measurement": "pKi", "setting": "[1]", "value": 8.31}]}, {"smiles": "CC1(C)Oc2cc(C3(CCCCN4CCOCC4)CCC3)cc(O)c2[C@@H]2C[C@H](O)CC[C@H]21", "values": [{"measurement": "pKi", "setting": "[1]", "value": 8.96}]}, {"smiles": "CC1(C)Oc2cc(C3(CCCCBr)CCC3)cc(O)c2[C@@H]2CC(=O)CC[C@H]21", "values": [{"measurement": "pKi", "setting": "[1]", "value": 7.74}]}, {"smiles": "CCCCCc1cc(O)c2c(c1)OC(C)(C)[C@@H]1CCC(C)=C[C@@H]21", "note": "[DRONABINOL]", "values": [{"measurement": "ED50", "setting": "[2]", "value": 1.3, "unit": "mg/kg"}, {"measurement": "T", "setting": "[3]", "value": 2.8, "unit": "°C"}]}, {"smiles": "CC1(C)Oc2cc(C3(CCCC#N)CCC3)cc(O)c2[C@@H]2C[C@H](O)CC[C@H]21", "values": [{"measurement": "pKi", "setting": "[1]", "value": 8.34}]}, {"smiles": "CC1(C)Oc2cc(C3(CCCCBr)CCC3)cc(O)c2[C@@H]2C[C@@H](O)CC[C@H]21", "values": [{"measurement": "pKi", "setting": "[1]", "value": 8.95}]}, {"smiles": "CC1(C)Oc2cc(C3(CCCCCN4CCOCC4)CCC3)cc(O)c2[C@@H]2CC(=O)CC[C@H]21", "values": [{"measurement": "pKi", "setting": "[1]", "value": 8.72}]}, {"smiles": "CC1(C)Oc2cc(C3(CCCCC#N)CCC3)cc(O)c2[C@@H]2C[C@@H](O)CC[C@H]21", "values": [{"measurement": "pKi", "setting": "[1]", "value": 8.72}]}, {"smiles": "CC1(C)Oc2cc(C3(CCCCN=[N+]=[N-])CCC3)cc(O)c2[C@@H]2C[C@@H](O)CC[C@H]21", "values": [{"measurement": "pKi", "setting": "[1]", "value": 8.09}]}, {"smiles": "CC1(C)Oc2cc(C3(CCCCCC#N)CCC3)cc(O)c2[C@@H]2CC(=O)CC[C@H]21", "values": [{"measurement": "T", "setting": "[4]", "value": 6, "unit": "°C"}, {"measurement": "Activity", "setting": "[5]", "value": "Active"}, {"measurement": "ED50", "setting": "[2]", "value": 0.14, "unit": "mg/kg"}, {"measurement": "Emax", "setting": "[6]", "value": 94, "unit": "%"}, {"measurement": "Emax", "setting": "[7]", "value": 93, "unit": "%"}, {"measurement": "pKi", "setting": "[1]", "value": 9.26}, {"measurement": "Activity", "setting": "[8]", "value": "Active"}, {"measurement": "ED50", "setting": "[9]", "value": 0.16, "unit": "mg/kg"}, {"measurement": "Emax", "setting": "[10]", "value": 126, "unit": "%"}, {"measurement": "pEC50", "setting": "[11]", "value": 8.85}, {"measurement": "pEC50", "setting": "[12]", "value": 8.12}, {"measurement": "pEC50", "setting": "[13]", "value": 8.07}]}, {"smiles": "CC1(C)Oc2cc(C3(CCCBr)CCC3)cc(O)c2[C@@H]2C[C@H](O)CC[C@H]21", "values": [{"measurement": "pKi", "setting": "[1]", "value": 8.06}]}, {"smiles": "CC1(C)Oc2cc(C3(CCCCCN=[N+]=[N-])CCC3)cc(O)c2[C@@H]2C[C@@H](O)CC[C@H]21", "values": [{"measurement": "pKi", "setting": "[1]", "value": 9.04}]}, {"smiles": "CC1(C)Oc2cc(C3(CCCCCC#N)CCC3)cc(O)c2[C@@H]2C[C@H](O)CC[C@H]21", "values": [{"measurement": "pKi", "setting": "[1]", "value": 9.16}, {"measurement": "Emax", "setting": "[10]", "value": 108, "unit": "%"}, {"measurement": "pEC50", "setting": "[13]", "value": 8.41}]}, {"smiles": "CC1(C)Oc2cc(C3(CCCCCCBr)CCC3)cc(O)c2[C@@H]2C[C@H](O)CC[C@H]21", "values": [{"measurement": "pKi", "setting": "[1]", "value": 9.42}]}, {"smiles": "CC1(C)Oc2cc(C3(CCCCC#N)CCC3)cc(O)c2[C@@H]2CC(=O)CC[C@H]21", "values": [{"measurement": "pKi", "setting": "[1]", "value": 8.47}]}, {"smiles": "CC1(C)Oc2cc(C3(CCCCN=C=S)CCC3)cc(O)c2[C@@H]2C[C@H](O)CC[C@H]21", "values": [{"measurement": "pKi", "setting": "[1]", "value": 8.84}]}, {"smiles": "CC1(C)Oc2cc(C3(CCCCCC#N)CCC3)cc(O)c2[C@@H]2C[C@@H](O)CC[C@H]21", "values": [{"measurement": "pKi", "setting": "[1]", "value": 9.21}, {"measurement": "Emax", "setting": "[10]", "value": 97, "unit": "%"}, {"measurement": "pEC50", "setting": "[13]", "value": 8.70}]}, {"smiles": "CC1(C)Oc2cc(C3(CCCCCN=[N+]=[N-])CCC3)cc(O)c2[C@@H]2CC(=O)CC[C@H]21", "values": [{"measurement": "pKi", "setting": "[1]", "value": 9.18}]}, {"smiles": "CC1(C)Oc2cc(C3(CCCCN=[N+]=[N-])CCC3)cc(O)c2[C@@H]2CC(=O)CC[C@H]21", "values": [{"measurement": "pKi", "setting": "[1]", "value": 7.96}]}, {"smiles": "CC1(C)Oc2cc(C3(CCCCN4CCOCC4)CCC3)cc(O)c2[C@@H]2CC(=O)CC[C@H]21", "values": [{"measurement": "pKi", "setting": "[1]", "value": 8.40}]}, {"smiles": "CC1(C)Oc2cc(C3(CCCBr)CCC3)cc(O)c2[C@@H]2CC(=O)CC[C@H]21", "values": [{"measurement": "pKi", "setting": "[1]", "value": 7.34}]}, {"smiles": "CCCCCCC(C)(C)c1cc(O)c2c(c1)OC(C)(C)C1CCC(=O)CC21", "note": "(stereo not given) [NABILONE]", "values": [{"measurement": "ED50", "setting": "[9]", "value": 0.38, "unit": "mg/kg"}]}, {"smiles": "CC1(C)Oc2cc(C3(CCCCCCBr)CCC3)cc(O)c2[C@@H]2CC(=O)CC[C@H]21", "values": [{"measurement": "pKi", "setting": "[1]", "value": 9.34}]}, {"smiles": "CC1(C)Oc2cc(C3(CCCCBr)CCC3)cc(O)c2[C@@H]2C[C@H](O)CC[C@H]21", "values": [{"measurement": "pKi", "setting": "[1]", "value": 8.92}]}, {"smiles": "CC1(C)Oc2cc(C3(CCCCN=C=S)CCC3)cc(O)c2[C@@H]2CC(=O)CC[C@H]21", "values": [{"measurement": "pKi", "setting": "[1]", "value": 8.09}]}, {"smiles": "CC1(C)Oc2cc(C3(CCCCCCN4CCOCC4)CCC3)cc(O)c2[C@@H]2C[C@H](O)CC[C@H]21", "values": [{"measurement": "pKi", "setting": "[1]", "value": 7.36}]}, {"smiles": "CC1(C)Oc2cc(C3(CCCCCCBr)CCC3)cc(O)c2[C@@H]2C[C@@H](O)CC[C@H]21", "values": [{"measurement": "pKi", "setting": "[1]", "value": 9.00}]}, {"smiles": "CC1(C)Oc2cc(C3(CCCCC#N)CCC3)cc(O)c2[C@@H]2C[C@H](O)CC[C@H]21", "values": [{"measurement": "pKi", "setting": "[1]", "value": 9.26}]}, {"smiles": "CC1(C)Oc2cc(C3(CCCCN=[N+]=[N-])CCC3)cc(O)c2[C@@H]2C[C@H](O)CC[C@H]21", "values": [{"measurement": "pKi", "setting": "[1]", "value": 9.24}]}]}
